In PubChem BioAssay AID1845212 (Molecular Pharmacology Branch, DTP, NCI, 2023):

System: NCI-H719 tumor spheroids, viability
Test: Anticancer human tumor NCI-H719 cell line growth inhibition;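 further: spheroids exposed to compounds for seven days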;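 on viability, T/C: percent viability relative to DMSO vehicle control as 100%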
Details: spheroids with HUVEC and MSC; for IC50: curve of first compound; for viability, T/C: stronger effect = lower value
Source text: Multicellular complex tumor spheroid response to DNA repair inhibitors in combination with DNA-damaging drugs
This study explores the anticancer activities of DNA-damaging drugs and inhibitors of DNA damage repair, both as single agents and in combinations. Complex tumor spheroids comprised of malignant cells, endothelial cells and mesenchymal stem cells served as an in vitro model for human solid tumors. This model system incorporates physiologically relevant features and patient-derived or established malignant cell lines with clinically relevant genetic alterations from many tumor types. Twenty-six patient-derived or established malignant cell lines were evaluated representing sarcoma, melanoma, small cell lung cancer (SCLC), non-small cell lung cancer (NSCLC), as well as bladder, ovarian and pancreatic cancers. The concentration ranges selected for each drug and investigational agent were based upon clinically achievable concentrations if the clinical Cmax of the agent was known.
Compounds. The drugs and compounds olaparib (NSC753686), talazoparib (NSC767125), berzosertib (NSC777718), elimusertib (NSC800525), nedisertib (NSC802822), VX-984 (NSC792969), AZD-1390 (NSC803789), temozolomide (NSC362856), topotecan (NSC609699), trabectedin (NSC813783), staurosporine (NSC755774), and gemcitabine (NSC613327) were obtained from the National Cancer Institute (NCI) Developmental Therapeutics Program Chemical Repository. The FDA-approved anticancer drug set is available from the Developmental Therapeutics Program at https://dtp.cancer.gov/organization/dscb/obtaining/available_plates.htm. […] The stock solutions were prepared in dimethyl sulfoxide (DMSO, Sigma-Aldrich, St. Louis, MO, cat. D2650) at 400-fold the tested concentration and stored at -70 degrees C. Prior to their use, the stock solutions were diluted in fresh medium and the final DMSO concentration in the assay was 0.25% (v/v). All drugs and investigational agents were tested over a range starting from a high concentration at or near the clinical Cmax and decreasing in half-log increments. If the clinical Cmax for an agent had not been determined, the highest concentration tested was 10 microM.
Cell Lines. The patient-derived cancer cell (PDC) lines: 156681-154-R-J1-PDC, 283228-195-R-J1-PDC, 287954-098-R-J1-PDC, 292921-168-R-J2-PDC, 349418-098-R-PDC, 425362-245-T-J1-PDC, 556581-035-R-J1-PDC, and BL0293-F563-PDC were received from the NCI Patient-Derived Models Repository (PDMR, https://pdmr.cancer.gov). The established cell lines HS-SY-2 (RRID:CVCL_8719), MPNST, and SYO-1 (RRID:CVCL_7146) were obtained from the Sloan Kettering Institute. The alveolar soft parts sarcoma cell line ASPS-1 (RRID:CVCL_S738) was established at the NCI and grown from internal seed stocks. The following established cell lines were purchased from the American Type Culture Collection (ATCC, Manassas, VA): G-401 (ATCC, cat. CRL-1441, RRID:CVCL_0270), SW982 (ATCC, cat. HTB-93, RRID:CVCL_1734), VA-ES-BJ (ATCC, cat. CRL-2138, RRID:CVCL_1785), NCI-H719 (ATCC, cat. CRL-5837, RRID:CVCL_1582), NCI-H196 (ATCC, cat. CRL-5823, RRID:CVCL_1509), NCI-H841 (ATCC, cat. CRL-5845, RRID:CVCL_1595), NCI-H1618 (ATCC, cat. CRL-5879, RRID:CVCL_1480), NCI-H1876 (ATCC, cat. CRL-5902, RRID:CVCL_1503), DMS 114 (ATCC, cat. CRL-2066; RRID:CVCL_1174), NCI-H211 (ATCC, cat. CRL-5824; RRID:CVCL_1529), and SW 1271 (ATCC, cat. CRL-2177, RRID:CVCL_1716). The small cell lung cancer cell line COR-L88 was purchased from Sigma-Aldrich (cat. 92031917-1VL, RRID:CVCL_1141). The non-small cell lung cancer cell lines NCI-H226 (RRID:CVCL_1544) and NCI-H322M (RRID:CVCL_1557) were established at the NCI and grown from internal seed stocks. Pooled donor human umbilical vein endothelial cells (HUVEC, Lonza, cat. CC-2519) and human mesenchymal stem cells (hMSC, Lonza, cat. PT-2501) were purchased from Lonza (Walkersville, MD).
Cell Culture. All cells were maintained in an incubator at 37 degrees C and 5% CO2 with 95% humidity. […]

CNCc1ccc(-c2cc(-c3nc(-c4ccc(S(=O)(=O)C(C)C)cc4)cnc3N)on2)cc1 + CC[C@@]1(O)C(=O)OCc2c1cc1n(c2=O)Cc2cc3c(CN(C)C)c(O)ccc3nc2-1
IC50 (second compound 0.003 µM): 11.2 nM
IC50 (second compound 0.00949 µM): < 9.49 nM
IC50 (second compound 0.03 µM): < 9.49 nM
IC50 (second compound 0.0949 µM): < 9.49 nM
IC50 (second compound 0.3 µM): < 9.49 nM
viability, T/C (second compound 0.003 µM, first compound 0.00949 µM): 51%
viability, T/C (second compound 0.003 µM, first compound 0.03 µM): 42.9%
viability, T/C (second compound 0.003 µM, first compound 0.0949 µM): 15.8%
viability, T/C (second compound 0.003 µM, first compound 0.3 µM): 7.57%
viability, T/C (second compound 0.003 µM, first compound 0.949 µM): 6.32%
viability, T/C (second compound 0.003 µM, first compound 3 µM): 0.12%
viability, T/C (second compound 0.00949 µM, first compound 0.00949 µM): 12.4%
viability, T/C (second compound 0.00949 µM, first compound 0.03 µM): 6.06%
viability, T/C (second compound 0.00949 µM, first compound 0.0949 µM): 6.36%
viability, T/C (second compound 0.00949 µM, first compound 0.3 µM): 7.36%
viability, T/C (second compound 0.00949 µM, first compound 0.949 µM): 7.1%
viability, T/C (second compound 0.00949 µM, first compound 3 µM): 0.13%
viability, T/C (second compound 0.03 µM, first compound 0.00949 µM): 5.87%
viability, T/C (second compound 0.03 µM, first compound 0.03 µM): 9.07%
viability, T/C (second compound 0.03 µM, first compound 0.0949 µM): 6.09%
viability, T/C (second compound 0.03 µM, first compound 0.3 µM): 8.62%
viability, T/C (second compound 0.03 µM, first compound 0.949 µM): 7.57%
viability, T/C (second compound 0.03 µM, first compound 3 µM): 0.1%
viability, T/C (second compound 0.0949 µM, first compound 0.00949 µM): 5.51%
viability, T/C (second compound 0.0949 µM, first compound 0.03 µM): 6.14%
viability, T/C (second compound 0.0949 µM, first compound 0.0949 µM): 7.1%
viability, T/C (second compound 0.0949 µM, first compound 0.3 µM): 8.34%
viability, T/C (second compound 0.0949 µM, first compound 0.949 µM): 8.45%
viability, T/C (second compound 0.0949 µM, first compound 3 µM): 0.11%
viability, T/C (second compound 0.3 µM, first compound 0.00949 µM): 6.1%
viability, T/C (second compound 0.3 µM, first compound 0.03 µM): 6.24%
viability, T/C (second compound 0.3 µM, first compound 0.0949 µM): 7.61%
viability, T/C (second compound 0.3 µM, first compound 0.3 µM): 8.16%
viability, T/C (second compound 0.3 µM, first compound 0.949 µM): 6.89%
viability, T/C (second compound 0.3 µM, first compound 3 µM): 0.15%
